From US10500219B2, “Compositions and methods for tissue regeneration” (ORBIS HEALTH SOLUTIONS LLC, priority 2012, dated 2019) come the findings set out here.

The assay relates to chronic Foot Rot. The assay can be described thus: Chronic Foot Rot with proliferative mass in a heifer (Example 25). The format is in vivo, American Shorthorn heifer. The note with it: injectable antibiotic for 7 days, before cream treatment. An excerpt: A two-year old female American Shorthorn heifer was presented with lameness and a proliferative mass (3″ in diameter)with associated swelling and large dense scab between the digits of the left hind foot diagnosed as chronic Foot Rot. […] After 4 months lameness reoccurred and the area again became inflamed. […] A surgical consultation determined that the area needed to be surgically excised under general anesthesia. Due to late term pregnancy, surgery was postponed until after delivery. While waiting for surgery, the cream of Example 18 was applied once daily by massaging the cream into the area between the digits. […] No surgery or further antibiotic therapy was anticipated. FIG. 11A depicts the infection in the left hind foot before treatment and FIG. 11B depicts the infected area after 3 weeks of treatment with the cream of Example 18.

`CS(=O)(=O)c1ccc([C@@H](O)[C@@H](CF)NC(=O)C(Cl)Cl)cc1` [Nuflor]: the lameness result is recorded as “reduced lameness” and the “reduction of mass size” value is on record as “approximately ⅓”.
